Results published in PubChem BioAssay (NCI).
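Each compound was tested at five concentrations against cells in 96-well plates for 48 hours. Abbreviation: GI50, concentration required for 50% inhibition of growth. TGI is the concentration that stops growth completely.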

Experiments:
Assay in all cases: growth of human tumour cells (NCI), 48 h
[1] = test system: 786-0 renal
[2] = test system: A498 renal
[3] = test system: A549 NSCLC
[4] = test system: ACHN renal
[5] = test system: BT-549 breast
[6] = test system: CAKI-1 renal
[7] = test system: CCRF-CEM leukemia
[8] = test system: COLO 205 colon
[9] = test system: DU-145 prostate
[10] = test system: EKVX NSCLC
[11] = test system: HCC-2998 colon
[12] = test system: HCT-116 colon
[13] = test system: HCT-15 colon
[14] = test system: HL-60(TB) leukemia
[15] = test system: HOP-62 NSCLC
[16] = test system: HOP-92 NSCLC
[17] = test system: HS 578T breast
[18] = test system: HT29 colon
[19] = test system: IGROV1 ovarian
[20] = test system: K-562 leukemia
[21] = test system: KM12 colon
[22] = test system: LOX IMVI melanoma
[23] = test system: MALME-3M melanoma
[24] = test system: MCF7 breast
[25] = test system: MDA-MB-231 breast
[26] = test system: MDA-MB-435
[27] = test system: MOLT-4 leukemia
[28] = test system: NCI-H226 lung
[29] = test system: NCI-H23 lung
[30] = test system: NCI-H460 lung
[31] = test system: NCI-H522 lung
[32] = test system: NCI/ADR-RES ovarian
[33] = test system: OVCAR-3 ovarian
[34] = test system: OVCAR-4 ovarian
[35] = test system: OVCAR-5 ovarian
[36] = test system: OVCAR-8 ovarian
[37] = test system: PC-3 prostate
[38] = test system: RPMI-8226 leukemia
[39] = test system: RXF 393 renal
[40] = test system: SF-268 CNS
[41] = test system: SF-295 CNS
[42] = test system: SF-539 CNS
[43] = test system: SK-MEL-2 melanoma
[44] = test system: SK-MEL-28 melanoma
[45] = test system: SK-MEL-5 melanoma
[46] = test system: SK-OV-3 ovarian
[47] = test system: SN12C renal
[48] = test system: SNB-19 CNS
[49] = test system: SNB-75 CNS
[50] = test system: SR leukemia
[51] = test system: SW-620 colon
[52] = test system: T-47D breast
[53] = test system: TK-10 renal
[54] = test system: U251 CNS
[55] = test system: UACC-257 melanoma
[56] = test system: UACC-62 melanoma
[57] = test system: UO-31 renal

In the case of `CCN(CC)c1ccc2c(cc1=O)[C@@H](NC(C)=O)CCc1cc(OC)c(OC)c(OC)c1-2`, the GI50 [1] is reported as 622 nM, the TGI [1] is reported as over 100000 nM and the GI50 [2] is reported as 260 nM. It also gave a GI50 [3] of 744 nM, a TGI [3] of over 100000 nM and a GI50 [4] of 2620 nM. For the same compound, the TGI [4] was over 100000 nM, the GI50 [5] was 245 nM and the TGI [5] was 7280 nM. For the same compound, the GI50 [6] was 4620 nM, the TGI [6] was over 100000 nM and the GI50 [7] was 213 nM. It also gave a TGI [7] of over 100000 nM, a GI50 [8] of 101 nM and a TGI [8] of 500 nM. It also gave a GI50 [9] of 368 nM, a GI50 [10] of 714 nM and a TGI [10] of over 100000 nM. It also gave a GI50 [11] of 347 nM, a TGI [11] of over 100000 nM and a GI50 [12] of 205 nM. For the same compound, the TGI [12] was over 100000 nM, the GI50 [13] was 2640 nM and the TGI [13] was over 100000 nM. For the same compound, the GI50 [14] was 63.3 nM, the TGI [14] was 319 nM and the GI50 [15] was 563 nM. It also gave a TGI [15] of over 100000 nM, a GI50 [16] of 7110 nM and a TGI [16] of over 100000 nM. For the same compound, the GI50 [17] was 648 nM, the TGI [17] was over 100000 nM and the GI50 [18] was 331 nM. It also gave a GI50 [19] of 510 nM, a TGI [19] of over 100000 nM and a GI50 [20] of 224 nM. For the same compound, the TGI [20] was over 100000 nM, the GI50 [21] was 282 nM and the TGI [21] was over 100000 nM. For the same compound, the GI50 [22] was 345 nM, the TGI [22] was over 100000 nM and the GI50 [23] was over 100000 nM. For the same compound, the TGI [23] was over 100000 nM, the GI50 [24] was 148 nM and the TGI [24] was over 100000 nM. For the same compound, the GI50 [25] was 552 nM, the TGI [25] was over 100000 nM and the GI50 [26] was 59.4 nM. For the same compound, the TGI [26] was 305 nM, the GI50 [27] was 511 nM and the TGI [27] was over 100000 nM. For the same compound, the GI50 [28] was 409 nM, the TGI [28] was over 100000 nM and the GI50 [29] was 578 nM. For the same compound, the TGI [29] was over 100000 nM, the GI50 [30] was 359 nM and the TGI [30] was over 100000 nM. The GI50 [31] was 218 nM, the TGI [31] was 579 nM and the GI50 [32] was 14300 nM. It also gave a TGI [32] of over 100000 nM, a GI50 [33] of 250 nM and a TGI [33] of 647 nM. For the same compound, the GI50 [34] was 3320 nM, the TGI [34] was over 100000 nM and the GI50 [35] was 2450 nM. It also gave a TGI [35] of over 100000 nM, a GI50 [36] of 467 nM and a TGI [36] of over 100000 nM. The GI50 [37] was 366 nM, the TGI [37] was over 100000 nM and the GI50 [38] was 288 nM. For the same compound, the TGI [38] was over 100000 nM, the GI50 [39] was 381 nM and the TGI [39] was over 100000 nM. The GI50 [40] was 511 nM, the TGI [40] was over 100000 nM and the GI50 [41] was 277 nM. It also gave a TGI [41] of over 100000 nM, a GI50 [42] of 217 nM and a GI50 [43] of 275 nM. For the same compound, the TGI [43] was over 100000 nM, the GI50 [44] was over 100000 nM and the TGI [44] was over 100000 nM. For the same compound, the GI50 [45] was 302 nM, the TGI [45] was 1560 nM and the GI50 [46] was 407 nM. The TGI [46] was over 100000 nM, the GI50 [47] was 691 nM and the TGI [47] was over 100000 nM. The GI50 [48] was 409 nM, the TGI [48] was over 100000 nM and the GI50 [49] was 321 nM. It also gave a TGI [49] of over 100000 nM, a GI50 [50] of 52.9 nM and a TGI [50] of over 100000 nM. The GI50 [51] was 287 nM, the TGI [51] was over 100000 nM and the GI50 [52] was over 100000 nM. For the same compound, the TGI [52] was over 100000 nM, the GI50 [53] was 65200 nM and the TGI [53] was over 100000 nM. It also gave a GI50 [54] of 407 nM, a TGI [54] of over 100000 nM and a GI50 [55] of over 100000 nM. It also gave a TGI [55] of over 100000 nM, a GI50 [56] of 311 nM and a TGI [56] of over 100000 nM. The GI50 [57] was 6720 nM and the TGI [57] was over 100000 nM.
